Laboratory results: patent US7820623B2 (priority 2006, dated 2010)
Bridge positions count the residues as written; N and C are the ends. Square brackets hold non-standard residues; d marks the D form. Peptide text beside a SMILES is read from it. 1Nal = N[C@@H](Cc1cccc2ccccc12)C(=O)O

What was measured:
[1] = test system: thapsigargin-induced IFN-g production in human whole blood; type: cell-based; details: read-out: Analogue Activity (IC50) WB/IFNg
[2] = test system: thapsigargin-induced IL-2 production in human whole blood; details: read-out: Analogue Activity (IC50) WB/IL-2

Compound | IC50 [1] [nM] | IC50 [2] [nM]
CC[C@H](C)[C@@H]1NC(=O)[C@H](CCCNC(=N)N)NC(=O)[C@@H](NC(=O)[C@H](CCCCN)NC(=O)[C@@H](NC(=O)[C@H](CC(N)=O)NC(=O)[C@@H](NC(=O)[C@@H](NC(=O)[C@@H](NC(=O)CN)C(C)C)[C@@H](C)CC)[C@@H](C)CC)C(C)C)CSSC[C@@H]2NC(=O)[C@H](CCCCN)NC(=O)CNC(=O)[C@H](Cc3ccccc3)NC(=O)[C@H](CCCNC(=N)N)NC(=O)[C@H](CCSC)NC(=O)CNC(=O)[C@H](C)NC(=O)[C@H](CCCCN)NC(=O)[C@H](CCCCN)NC(=O)[C@@H]3CSSC[C@@H](C(=O)N[C@H](C(=O)N4CCC[C@H]4C(=O)N[C@@H](CCCCN)C(=O)O)[C@@H](C)O)NC(=O)[C@H](Cc4c[nH]cn4)NC(=O)[C@H](CSSC[C@H](NC(=O)[C@H](CCC(N)=O)NC(=O)[C@H](CCCNC(=N)N)NC(=O)[C@H](CO)NC1=O)C(=O)N[C@@H](CC(C)C)C(=O)N[C@@H](CCC(=O)O)C(=O)N1CCC[C@H]1C(=O)N3)NC(=O)[C@H](CCCCN)NC(=O)CNC(=O)[C@H](CC(N)=O)NC(=O)[C@H](CCSC)NC2=O [K9R] (H-GVIINVKCRISRQCLEPCKKAGMRFGKCMNGKCHCTPK-OH; disulfide 8-28, 14-33, 18-35) | 0.077 | 0.107
CC[C@H](C)[C@@H]1NC(=O)[C@H](CCCCN)NC(=O)[C@@H](NC(=O)[C@H](CCCCN)NC(=O)[C@@H](NC(=O)[C@H](CC(N)=O)NC(=O)[C@@H](NC(=O)[C@@H](NC(=O)[C@@H](NC(=O)CN)C(C)C)[C@@H](C)CC)[C@@H](C)CC)C(C)C)CSSC[C@@H]2NC(=O)[C@H](CCCCN)NC(=O)CNC(=O)[C@H](Cc3ccccc3)NC(=O)[C@H](CCCNC(=N)N)NC(=O)[C@H](CCSC)NC(=O)CNC(=O)[C@H](C)NC(=O)[C@H](CCCCN)NC(=O)[C@H](C)NC(=O)[C@@H]3CSSC[C@@H](C(=O)N[C@H](C(=O)N4CCC[C@H]4C(=O)N[C@@H](CCCCN)C(=O)O)[C@@H](C)O)NC(=O)[C@H](Cc4c[nH]cn4)NC(=O)[C@H](CSSC[C@H](NC(=O)[C@H](CCC(N)=O)NC(=O)[C@H](CCCNC(=N)N)NC(=O)[C@H](CO)NC1=O)C(=O)N[C@@H](CC(C)C)C(=O)N[C@@H](CCC(=O)O)C(=O)N1CCC[C@H]1C(=O)N3)NC(=O)[C@H](CCCCN)NC(=O)CNC(=O)[C@H](CC(N)=O)NC(=O)[C@H](CCSC)NC2=O [K19A] (H-GVIINVKCKISRQCLEPCAKAGMRFGKCMNGKCHCTPK-OH; disulfide 8-28, 14-33, 18-35) | 0.163 | 0.163
CC[C@H](C)[C@@H]1NC(=O)[C@H](CCCCN)NC(=O)[C@@H](NC(=O)[C@H](CCCCN)NC(=O)[C@@H](NC(=O)[C@H](CC(N)=O)NC(=O)[C@@H](NC(=O)[C@@H](NC(=O)[C@@H](NC(=O)CN)C(C)C)[C@@H](C)CC)[C@@H](C)CC)C(C)C)CSSC[C@@H]2NC(=O)[C@H](CCCCN)NC(=O)CNC(=O)[C@H](Cc3ccccc3)NC(=O)[C@H](CCCNC(=N)N)NC(=O)[C@H](CCSC)NC(=O)CNC(=O)[C@H](C)NC(=O)[C@H](CCCCN)NC(=O)[C@H](Cc3cccc4ccccc34)NC(=O)[C@@H]3CSSC[C@@H](C(=O)N[C@H](C(=O)N4CCC[C@H]4C(=O)N[C@@H](CCCCN)C(=O)O)[C@@H](C)O)NC(=O)[C@H](Cc4c[nH]cn4)NC(=O)[C@H](CSSC[C@H](NC(=O)[C@H](CCC(N)=O)NC(=O)[C@H](CCCNC(=N)N)NC(=O)[C@H](CO)NC1=O)C(=O)N[C@@H](CC(C)C)C(=O)N[C@@H](CCC(=O)O)C(=O)N1CCC[C@H]1C(=O)N3)NC(=O)[C@H](CCCCN)NC(=O)CNC(=O)[C@H](CC(N)=O)NC(=O)[C@H](CCSC)NC2=O [K19Nal] (H-GVIINVKCKISRQCLEPC[1Nal]KAGMRFGKCMNGKCHCTPK-OH; disulfide 8-28, 14-33, 18-35) | 0.099 | 0.058
CC[C@H](C)[C@@H]1NC(=O)[C@H](CCCCN)NC(=O)[C@@H](NC(=O)[C@H](CCCCN)NC(=O)[C@@H](NC(=O)[C@H](CC(N)=O)NC(=O)[C@@H](NC(=O)[C@@H](NC(=O)[C@@H](NC(=O)CN)C(C)C)[C@@H](C)CC)[C@@H](C)CC)C(C)C)CSSC[C@@H]2NC(=O)[C@H](CCCCN)NC(=O)CNC(=O)[C@H](Cc3ccccc3)NC(=O)[C@H](CCCNC(=N)N)NC(=O)[C@H](CCSC)NC(=O)CNC(=O)[C@H](C)NC(=O)[C@H](CCCCN)NC(=O)[C@H](CCCNC(=N)N)NC(=O)[C@@H]3CSSC[C@@H](C(=O)N[C@H](C(=O)N4CCC[C@H]4C(=O)N[C@@H](CCCCN)C(=O)O)[C@@H](C)O)NC(=O)[C@H](Cc4c[nH]cn4)NC(=O)[C@H](CSSC[C@H](NC(=O)[C@H](CCC(N)=O)NC(=O)[C@H](CCCNC(=N)N)NC(=O)[C@H](CO)NC1=O)C(=O)N[C@@H](CC(C)C)C(=O)N[C@@H](CCC(=O)O)C(=O)N1CCC[C@H]1C(=O)N3)NC(=O)[C@H](CCCCN)NC(=O)CNC(=O)[C@H](CC(N)=O)NC(=O)[C@H](CCSC)NC2=O [K19R] (H-GVIINVKCKISRQCLEPCRKAGMRFGKCMNGKCHCTPK-OH; disulfide 8-28, 14-33, 18-35) | 0.062 | 0.044
CC[C@H](C)[C@@H]1NC(=O)[C@H](CCCCN)NC(=O)[C@@H](NC(=O)[C@H](CCCCN)NC(=O)[C@@H](NC(=O)[C@H](CC(N)=O)NC(=O)[C@@H](NC(=O)[C@@H](NC(=O)[C@@H](NC(=O)CN)C(C)C)[C@@H](C)CC)[C@@H](C)CC)C(C)C)CSSC[C@@H]2NC(=O)[C@H](CCCCN)NC(=O)CNC(=O)[C@H](Cc3ccccc3)NC(=O)[C@H](CCCNC(=N)N)NC(=O)[C@H](CCSC)NC(=O)CNC(=O)[C@H](C)NC(=O)[C@H](C)NC(=O)[C@H](CCCCN)NC(=O)[C@@H]3CSSC[C@@H](C(=O)N[C@H](C(=O)N4CCC[C@H]4C(=O)N[C@@H](CCCCN)C(=O)O)[C@@H](C)O)NC(=O)[C@H](Cc4c[nH]cn4)NC(=O)[C@H](CSSC[C@H](NC(=O)[C@H](CCC(N)=O)NC(=O)[C@H](CCCNC(=N)N)NC(=O)[C@H](CO)NC1=O)C(=O)N[C@@H](CC(C)C)C(=O)N[C@@H](CCC(=O)O)C(=O)N1CCC[C@H]1C(=O)N3)NC(=O)[C@H](CCCCN)NC(=O)CNC(=O)[C@H](CC(N)=O)NC(=O)[C@H](CCSC)NC2=O [K20A] (H-GVIINVKCKISRQCLEPCKAAGMRFGKCMNGKCHCTPK-OH; disulfide 8-28, 14-33, 18-35) | 0.379 | 0.379
CC[C@H](C)[C@@H]1NC(=O)[C@H](CCCCN)NC(=O)[C@@H](NC(=O)[C@H](CCCCN)NC(=O)[C@@H](NC(=O)[C@H](CC(N)=O)NC(=O)[C@@H](NC(=O)[C@@H](NC(=O)[C@@H](NC(=O)CN)C(C)C)[C@@H](C)CC)[C@@H](C)CC)C(C)C)CSSC[C@@H]2NC(=O)[C@H](CCCCN)NC(=O)CNC(=O)[C@H](Cc3ccccc3)NC(=O)[C@H](CCCNC(=N)N)NC(=O)[C@H](CCSC)NC(=O)CNC(=O)[C@H](C)NC(=O)[C@H](Cc3cccc4ccccc34)NC(=O)[C@H](CCCCN)NC(=O)[C@@H]3CSSC[C@@H](C(=O)N[C@H](C(=O)N4CCC[C@H]4C(=O)N[C@@H](CCCCN)C(=O)O)[C@@H](C)O)NC(=O)[C@H](Cc4c[nH]cn4)NC(=O)[C@H](CSSC[C@H](NC(=O)[C@H](CCC(N)=O)NC(=O)[C@H](CCCNC(=N)N)NC(=O)[C@H](CO)NC1=O)C(=O)N[C@@H](CC(C)C)C(=O)N[C@@H](CCC(=O)O)C(=O)N1CCC[C@H]1C(=O)N3)NC(=O)[C@H](CCCCN)NC(=O)CNC(=O)[C@H](CC(N)=O)NC(=O)[C@H](CCSC)NC2=O [K20Nal] (H-GVIINVKCKISRQCLEPCK[1Nal]AGMRFGKCMNGKCHCTPK-OH; disulfide 8-28, 14-33, 18-35) | 0.125 | 0.074
CC[C@H](C)[C@@H]1NC(=O)[C@H](CCCCN)NC(=O)[C@@H](NC(=O)[C@H](CCCCN)NC(=O)[C@@H](NC(=O)[C@H](CC(N)=O)NC(=O)[C@@H](NC(=O)[C@@H](NC(=O)[C@@H](NC(=O)CN)C(C)C)[C@@H](C)CC)[C@@H](C)CC)C(C)C)CSSC[C@@H]2NC(=O)[C@H](CCCCN)NC(=O)CNC(=O)[C@H](Cc3ccccc3)NC(=O)[C@H](CCCNC(=N)N)NC(=O)[C@H](CCSC)NC(=O)CNC(=O)[C@H](C)NC(=O)[C@H](CCCNC(=N)N)NC(=O)[C@H](CCCCN)NC(=O)[C@@H]3CSSC[C@@H](C(=O)N[C@H](C(=O)N4CCC[C@H]4C(=O)N[C@@H](CCCCN)C(=O)O)[C@@H](C)O)NC(=O)[C@H](Cc4c[nH]cn4)NC(=O)[C@H](CSSC[C@H](NC(=O)[C@H](CCC(N)=O)NC(=O)[C@H](CCCNC(=N)N)NC(=O)[C@H](CO)NC1=O)C(=O)N[C@@H](CC(C)C)C(=O)N[C@@H](CCC(=O)O)C(=O)N1CCC[C@H]1C(=O)N3)NC(=O)[C@H](CCCCN)NC(=O)CNC(=O)[C@H](CC(N)=O)NC(=O)[C@H](CCSC)NC2=O [K20R] (H-GVIINVKCKISRQCLEPCKRAGMRFGKCMNGKCHCTPK-OH; disulfide 8-28, 14-33, 18-35) | 0.083 | 0.067
CC[C@H](C)[C@@H]1NC(=O)[C@H](CCCCN)NC(=O)[C@@H](NC(=O)[C@H](CCCCN)NC(=O)[C@@H](NC(=O)[C@H](CC(N)=O)NC(=O)[C@@H](NC(=O)[C@@H](NC(=O)[C@@H](NC(=O)CN)C(C)C)[C@@H](C)CC)[C@@H](C)CC)C(C)C)CSSC[C@@H]2NC(=O)[C@H](CCC(=O)O)NC(=O)CNC(=O)[C@H](Cc3ccccc3)NC(=O)[C@H](CCCNC(=N)N)NC(=O)[C@H](CCSC)NC(=O)CNC(=O)[C@H](C)NC(=O)[C@H](CCCCN)NC(=O)[C@H](CCCCN)NC(=O)[C@@H]3CSSC[C@@H](C(=O)N[C@H](C(=O)N4CCC[C@H]4C(=O)N[C@@H](CCCCN)C(=O)O)[C@@H](C)O)NC(=O)[C@H](Cc4c[nH]cn4)NC(=O)[C@H](CSSC[C@H](NC(=O)[C@H](CCC(N)=O)NC(=O)[C@H](CCCNC(=N)N)NC(=O)[C@H](CO)NC1=O)C(=O)N[C@@H](CC(C)C)C(=O)N[C@@H](CCC(=O)O)C(=O)N1CCC[C@H]1C(=O)N3)NC(=O)[C@H](CCCCN)NC(=O)CNC(=O)[C@H](CC(N)=O)NC(=O)[C@H](CCSC)NC2=O [K27E] (H-GVIINVKCKISRQCLEPCKKAGMRFGECMNGKCHCTPK-OH; disulfide 8-28, 14-33, 18-35) | 7.14 | 5.55
